{"source": "patent US20120077837A1", "about": "“ANTI-TUMOR AGENT” (EISAI R&D MANAGEMENT CO., LTD., priority 2010, published 2012)", "test_system": "human renal cell carcinoma cell line (Caki-1)", "assay": "Tumor growth-inhibitory action by combined use of Compound A and everolimus in nude mice transplanted with Caki-1", "format": "in vivo", "settings": "subcutaneous Caki-1 xenograft, oral once per day, Compound A 10 mg/kg, everolimus 30 mg/kg", "method": "Using 5 individuals per group of nude mice (CAnN.Cg-Foxn1nu/Cr1Cr1j, female, Charles River Japan, Inc.), the antitumor effect obtained when Compound A, everolimus or the both compounds was/were administered was evaluated. Human-derived renal cell carcinoma cell line Caki-1(ATCC) was added to a medium (RPMI-1640, Wako Pure Chemical Industries, Ltd.) to a density of 2×10^8 cells/mL and suspended therein. To the resulting suspension, an equal volume of Matrigel™ matrix (Nippon Becton Dickinson Co., Ltd.) was added, and the resulting mixture was mixed sufficiently. The mixture was subcutaneously transplanted at the left flank of each mouse in an amount of 0.1 mL.\nForty eight days after the transplantation, the major axis and the minor axis were measured using an electronic digital caliper (Digimatic™ caliper, Mitutoyo Corporation). The mice were separated into groups such that the average value of the tumor volume is almost the same among the groups. The volume of the tumor was calculated according to the equation below.\nTumor volume=major axis (mm)×minor axis (mm)×minor axis (mm)/2\nCompound A was dissolved in purified water to a concentration of 1 mg/mL. Further, everolimus was suspended in a mixed solution of DMSO, Tween 80 and glucose (3.5:6.5:90 (V/V/V), hereinafter referred to as solvent) to a concentration of 3 mg/mL.\nTo the mice of each group, the Compound A solution and the solvent, the everolimus suspension and purified water, or the Compound A solution and the everolimus suspension were orally administered in an amount of 10 mL/kg once per day for 15 days. The doses of Compound A and everolimus were 10 mg/kg and 30 mg/kg, respectively. To the control group, 10 mL/kg each of purified water and the solvent was administered.\nThe tumor volume of each mouse was measured on Day 4, 7, 11 and 14 after the beginning of the administration. The ratio of the tumor volume observed on each day of the measurement relative to the tumor volume observed on the day when the administration was begun was calculated as the relative tumor volume (hereinafter referred to as RTV).", "key": {"[1]": {"settings": "Day 4 after beginning of administration"}, "[2]": {"settings": "Day 7 after beginning of administration"}, "[3]": {"settings": "Day 11 after beginning of administration"}, "[4]": {"settings": "Day 14 after beginning of administration"}}}
{"compound": "COc1cc2nccc(Oc3ccc(NC(=O)NC4CC4)c(Cl)c3)c2cc1C(N)=O", "note": "[Compound A, 4-[3-chloro-4-(cyclopropylaminocarbonyl)aminophenoxy]-7-methoxy-6-quinolinecarboxamide]", "values": [{"measurement": "relative tumor volume (RTV)", "setting": "[1]", "value": 1.15}, {"measurement": "relative tumor volume (RTV)", "setting": "[2]", "value": 1.15}, {"measurement": "relative tumor volume (RTV)", "setting": "[3]", "value": 1.07}, {"measurement": "relative tumor volume (RTV)", "setting": "[4]", "value": 1.02}]}
{"compound": "COC1CC2CCC(C)C(O)(O2)C(=O)C(=O)N2CCCCC2C(=O)OC(C(C)CC2CCC(OCCO)C(OC)C2)CC(=O)C(C)/C=C(\\C)C(O)C(OC)C(=O)C(C)CC(C)/C=C/C=C/C=C/1C", "note": "(centres unmarked) [Everolimus, 42-O-(2-hydroxyethyl)-rapamycin]", "values": [{"measurement": "relative tumor volume (RTV)", "setting": "[1]", "value": 1.03}, {"measurement": "relative tumor volume (RTV)", "setting": "[2]", "value": 0.97}, {"measurement": "relative tumor volume (RTV)", "setting": "[3]", "value": 0.95}, {"measurement": "relative tumor volume (RTV)", "setting": "[4]", "value": 0.92}]}
